Measured values as given in article PMC10850145, “Hormonal steroids induce multidrug resistance and stress response genes in Neisseria gonorrhoeae by binding to MtrR” (Nature Communications, 2024).
Values joined by “and” are separate entries in the source; they are usually repeats but may differ in a detail not shown here. Equal values may be shown once. Read-outs that look alike come from different tables or passages of the source.

Tests used:
[1] = test system: N. gonorrhoeae; parameters: method as in PMID 816438; details: cited from earlier work
[2] = test system: FA19 mtrD::kan (KH14); experiment: MIC of steroidal hormones on GC agar, FA19 mtrD::kan (KH14); type: cell-based, Neisseria gonorrhoeae
Description: (§1) To determine the minimal inhibitory concentrations (MICs) by the steroidal hormones and their effect on antimicrobial susceptibility, 5 x 10^5 CFU and 1:5 serial dilutions of gonococcal strains were spotted on GC agar plates containing different concentrations of antibiotics and/or hormones as indicated. Antimicrobial susceptibility was assessed after 24 h incubation.
(§2) Table S1. Steroidal hormones are substrates of the MtrCDE efflux pump
(§3) Progesterone Testosterone
(§4) *Minimal inhibition concentration is defined by the lowest concentration at which visible growth is […]

[3] = test system: gonococcal strain FA19; experiment: MIC of steroidal hormones on GC agar, strain FA19; type: cell-based; details: Neisseria gonorrhoeae
Description: as §1, §2, §3, §4

[4] = target: T1, MtrR D171A (Neisseria gonorrhoeae, UniProt P39897, D171A); experiment: biochemical; type: binding
T1 construct: Hexa-histidine tag with TEV protease cleavage site (N, cleaved yes); made in house; host or cells: E. coli Rosetta Gami B(DE3) pLysS

[5] = target: T2, MtrR binding to mtrCDE operator (21mer) (Neisseria gonorrhoeae, UniProt P39897); experiment: Fluorescence polarization based DNA binding assay, mtrCDE operator; details: mtrCDE 21mer + 125 µM steroid
T2 construct: Hexa-histidine tag with TEV protease cleavage site (N, cleaved yes); made in house; host or cells: E. coli Rosetta Gami B(DE3) pLysS
Description: Fluorescence polarization based-DNA binding data were collected using a Panvera Beacon 2000 fluorescence polarization system (Invitrogen) and analyzed with Prism (Graphpad Software 9, 10). Purified MtrR was buffer exchanged into “DNA” binding buffer (150 mM NaCl, 20 mM Tris-HCl pH 7.5, 2.5% glycerol, 1 mM TCEP). […] The reported oligoduplexes containing the rpoH and mtrCDE binding site differ in lengths, 27mer and 21mer, respectively[17],[21]. […] BSA and dI-dC are included as carriers and to control for nonspecific DNA binding. Samples were excited at 490 nm and polarized emissions measured at 530 nm. Controls were run with no protein (DNA ± methanol, hormonal steroids) to ensure that millipolarization values were not affected by experimental conditions alone. The binding affinity of protein for DNA was determined using the following equation: P = Pf + (Pb – Pf) [M] / (Kd + [M]) where P is the measured polarization, Pf is the polarization of free DNA, Pb is the polarization of the completely bound DNA, Kd is the equilibrium dissociation constant, and M is the concentration of protein. Pb and Kd were determined by nonlinear least-squares analysis. At least three independent experimental measurements were averaged for each reported binding constant.

[6] = target: T3, MtrR R176E (Neisseria gonorrhoeae, UniProt P39897, R176E); experiment: biochemical; type: binding
T3 construct: Hexa-histidine tag with TEV protease cleavage site (N, cleaved yes); made in house; host or cells: E. coli Rosetta Gami B(DE3) pLysS

[7] = test system: rpoH-lacZ expression; type: cell-based, Neisseria gonorrhoeae; details: for Miller units, single well: individual replicate; for Miller units: plate rows 5-8 (rpoH), single well; for Plate-6 (Testosterone) Miller units, Mean / Plate-6 (Testosterone) Miller units: right (rpoH) half of sheet
[8] = 6.25 µM hormone, plate columns 1-6 (WT)
[9] = 12.5 µM hormone, plate columns 1-6 (WT)
[10] = 25 µM hormone, plate columns 1-6 (WT)

T2 sequence (P39897 whole entry): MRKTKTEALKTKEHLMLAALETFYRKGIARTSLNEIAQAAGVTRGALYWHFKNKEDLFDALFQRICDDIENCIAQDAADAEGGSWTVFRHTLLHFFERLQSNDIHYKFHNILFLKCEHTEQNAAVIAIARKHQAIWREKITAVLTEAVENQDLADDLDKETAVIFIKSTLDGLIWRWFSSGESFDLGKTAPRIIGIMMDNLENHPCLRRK
T1 sequence (P39897 whole entry D171A): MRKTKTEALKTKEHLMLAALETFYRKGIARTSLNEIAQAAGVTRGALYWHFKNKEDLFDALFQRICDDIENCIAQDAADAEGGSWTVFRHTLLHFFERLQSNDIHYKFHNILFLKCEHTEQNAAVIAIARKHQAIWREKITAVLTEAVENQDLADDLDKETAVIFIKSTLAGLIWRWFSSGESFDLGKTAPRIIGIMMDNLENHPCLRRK
T3 sequence (P39897 whole entry R176E): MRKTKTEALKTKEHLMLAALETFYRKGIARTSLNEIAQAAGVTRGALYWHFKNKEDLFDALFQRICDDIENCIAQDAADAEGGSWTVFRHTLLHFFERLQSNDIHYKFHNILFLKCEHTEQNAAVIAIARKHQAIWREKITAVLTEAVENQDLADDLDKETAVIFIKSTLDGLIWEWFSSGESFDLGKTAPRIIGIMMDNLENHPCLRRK

C[C@]12CC[C@H]3[C@@H](CCC4=CC(=O)CC[C@@]43C)[C@@H]1CC[C@@H]2O [Testosterone, testosterone]
growth inhibition of N. gonorrhoeae [1]: arrest N. gonorrhoeae growth
MIC ([2]; Neisseria gonorrhoeae): 40 µg/mL and 139 µM
effect of mtrD deletion on MIC ([2]; vs FA19): lowered
MIC ([3]; FA19): 160 µg/mL
MIC ([3]; FA19, 24 h): 555 µM
Kd [4]: 30.9 ± 24.2 µM
fluorescence polarization, MtrR titration ([5]; MtrR WT dimer 0.00 nM): 0.00 mP
fluorescence polarization, MtrR titration ([5]; MtrR WT dimer 6.35 nM): 2.61 mP and 1.77 mP and 1.84 mP
fluorescence polarization, MtrR titration ([5]; MtrR WT dimer 11.32 nM): 5.67 mP and 3.54 mP and 4.04 mP
fluorescence polarization, MtrR titration ([5]; MtrR WT dimer 16.21 nM): 6.61 mP and 4.54 mP and 5.44 mP
fluorescence polarization, MtrR titration ([5]; MtrR WT dimer 35.50 nM): 8.17 mP and 7.34 mP and 6.54 mP
fluorescence polarization, MtrR titration ([5]; MtrR WT dimer 73.35 nM): 11.31 mP and 10.71 mP and 11.67 mP
fluorescence polarization, MtrR titration ([5]; MtrR WT dimer 110.67 nM): 14.21 mP and 12.44 mP and 14.87 mP
fluorescence polarization, MtrR titration ([5]; MtrR WT dimer 147.65 nM): 16.64 mP and 15.47 mP and 17.31 mP
fluorescence polarization, MtrR titration ([5]; MtrR WT dimer 220.59 nM): 21.64 mP and 18.07 mP and 21.37 mP
fluorescence polarization, MtrR titration ([5]; MtrR WT dimer 292.55 nM): 24.51 mP and 22.87 mP and 24.21 mP
fluorescence polarization, MtrR titration ([5]; MtrR WT dimer 363.86 nM): 27.31 mP and 26.01 mP and 26.94 mP
fluorescence polarization, MtrR titration ([5]; MtrR WT dimer 434.54 nM): 29.54 mP and 28.57 mP and 30.57 mP
fluorescence polarization, MtrR titration ([5]; MtrR WT dimer 504.61 nM): 32.14 mP and 30.37 mP and 33.41 mP
fluorescence polarization, MtrR titration ([5]; MtrR WT dimer 574.07 nM): 34.11 mP and 32.41 mP and 35.04 mP
fluorescence polarization, MtrR titration ([5]; MtrR WT dimer 711.46 nM): 38.41 mP and 36.24 mP and 38.57 mP
fluorescence polarization, MtrR titration ([5]; MtrR WT dimer 848.00 nM): 41.31 mP and 39.27 mP and 42.47 mP
Kd [6]: 3.73 ± 0.4 µM
Miller units, single well [7, 8]: 114 Miller units and 127 Miller units and 153 Miller units
Miller units, Mean ([7]; 6.25 µM hormone, plate columns 1-6 (WT), mean of 4 wells): 125 Miller units
Miller units, Mean ([7]; 6.25 µM hormone, plate columns 1-6 (WT), mean of plate rows 5-8 (rpoH)): 125 Miller units
Miller units [7, 8]: 114 Miller units and 127 Miller units and 153 Miller units and 108 Miller units
Miller units ([7]; 6.25 µM hormone, plate columns 7-12 (second strain not given)): 161 Miller units and 167 Miller units and 191 Miller units and 162 Miller units
Miller units, Mean ([7]; 6.25 µM hormone, plate columns 7-12 (second strain), mean of plate rows 5-8 (rpoH)): 170 Miller units
Miller units, single well ([7]; 6.25 µM hormone, plate columns 7-12 (second strain, not WT)): 161 Miller units and 167 Miller units and 191 Miller units
Miller units, Mean ([7]; 6.25 µM hormone, plate columns 7-12 (second strain, not WT), mean of 4 wells): 170 Miller units
Plate-6 (Testosterone) Miller units, Mean ([7]; 6.25 µM, plate column 3, mean of plate rows 5-8): 43 Miller units
Plate-6 (Testosterone) Miller units ([7]; 6.25 µM, plate column 3, plate rows 5-8, single wells): 39 Miller units and 46 Miller units and 47 Miller units
Plate-6 (Testosterone) Miller units, Mean ([7]; 6.25 µM, plate column 9, mean of plate rows 5-8): 64 Miller units
Plate-6 (Testosterone) Miller units ([7]; 6.25 µM, single wells): 55 Miller units and 57 Miller units and 65 Miller units and 80 Miller units
Miller units, single well [7, 9]: 120 Miller units and 124 Miller units and 149 Miller units
Miller units, Mean ([7]; 12.5 µM hormone, plate columns 1-6 (WT), mean of 4 wells): 130 Miller units
Miller units, Mean ([7]; 12.5 µM hormone, plate columns 1-6 (WT), mean of plate rows 5-8 (rpoH)): 130 Miller units
Miller units [7, 9]: 120 Miller units and 124 Miller units and 149 Miller units and 125 Miller units
Miller units ([7]; 12.5 µM hormone, plate columns 7-12 (second strain not given)): 161 Miller units and 177 Miller units and 186 Miller units and 176 Miller units
Miller units, Mean ([7]; 12.5 µM hormone, plate columns 7-12 (second strain), mean of plate rows 5-8 (rpoH)): 175 Miller units
Miller units, single well ([7]; 12.5 µM hormone, plate columns 7-12 (second strain, not WT)): 161 Miller units and 177 Miller units and 186 Miller units
Miller units, Mean ([7]; 12.5 µM hormone, plate columns 7-12 (second strain, not WT), mean of 4 wells): 175 Miller units
Plate-6 (Testosterone) Miller units, Mean ([7]; 12.5 µM, plate column 4, mean of plate rows 5-8): 52 Miller units
Plate-6 (Testosterone) Miller units ([7]; 12.5 µM, plate column 4, plate rows 5-8, single wells): 51 Miller units and 50 Miller units and 56 Miller units and 52 Miller units
Plate-6 (Testosterone) Miller units, Mean ([7]; 12.5 µM, plate column 10, mean of plate rows 5-8): 62 Miller units
Plate-6 (Testosterone) Miller units ([7]; 12.5 µM, plate column 10, plate rows 5-8, single wells): 58 Miller units and 54 Miller units and 63 Miller units and 74 Miller units
Miller units, single well [7, 10]: 127 Miller units and 137 Miller units
Miller units, Mean ([7]; 25 µM hormone, plate columns 1-6 (WT), mean of 4 wells): 133 Miller units
Miller units, Mean ([7]; 25 µM hormone, plate columns 1-6 (WT), mean of plate rows 5-8 (rpoH)): 133 Miller units
Miller units [7, 10]: 127 Miller units and 137 Miller units and 133 Miller units
Miller units ([7]; 25 µM hormone, plate columns 7-12 (second strain not given)): 168 Miller units and 179 Miller units and 147 Miller units and 185 Miller units
Miller units, Mean ([7]; 25 µM hormone, plate columns 7-12 (second strain), mean of plate rows 5-8 (rpoH)): 170 Miller units
Miller units, single well ([7]; 25 µM hormone, plate columns 7-12 (second strain, not WT)): 168 Miller units and 179 Miller units and 147 Miller units
Miller units, Mean ([7]; 25 µM hormone, plate columns 7-12 (second strain, not WT), mean of 4 wells): 170 Miller units
Plate-6 (Testosterone) Miller units, Mean ([7]; 25 µM, plate column 5, mean of plate rows 5-8): 63 Miller units
Plate-6 (Testosterone) Miller units ([7]; 25 µM, plate column 5, plate rows 5-8, single wells): 68 Miller units and 55 Miller units and 57 Miller units and 70 Miller units
Plate-6 (Testosterone) Miller units, Mean ([7]; 25 µM, plate column 11, mean of plate rows 5-8): 65 Miller units
Plate-6 (Testosterone) Miller units ([7]; 25 µM, plate column 11, plate rows 5-8, single wells): 64 Miller units and 60 Miller units and 68 Miller units and 67 Miller units
